From publication PMC7394379, “Structure-guided screening strategy combining surface plasmon resonance with nuclear magnetic resonance for identification of small-molecule Argonaute 2 inhibitors” (PLoS ONE, 2020)
Like-named read-outs stand apart in the source and are kept apart here.

Assays:
AGO2 MID domain [1] = target: T1, AGO2 MID domain (Homo sapiens, UniProt Q9UKV8); assay: SPR inhibition, immobilised biotin-PEG-UMP versus AGO2 MID domain; assay type: binding
T1 construct: MID domain Gln432-Leu578 (147 residues); pE-SUMOpro-3 His-SUMO fusion, tag removed by SUMO protease 2; E. coli BL21(DE3); 15N-labelled for NMR

AGO2 MID domain [2] = target: T1, AGO2 MID domain; assay: 1H-15N HSQC NMR chemical shift perturbation; settings: 20 °C, pH 6.70, 25 mM sodium phosphate, 150 mM NaCl, 2 mM TCEP; two binding sites suggested, one overlapping AMP
AGO2 MID domain [3] = target: T1, AGO2 MID domain; assay: SPR inhibition, immobilised biotin-PEG-UMP versus AGO2 MID domain; assay type: binding; settings: HBS-EP+ pH 7.4, 2 mM DTT, 5% DMSO; competition at the 5'-terminal nucleotide site
AGO2 MID domain [4] = target: T1, AGO2 MID domain; assay: as above; assay type: binding; settings: read-out: % inhibition at 500 μmol/L
[5] = HBS-EP+ pH 7.4, 2 mM DTT, 5% DMSO, competition at the 5'-terminal nucleotide site

Row | Structure (SMILES) | IC50 (AGO2 MID domain [1]; [5]) | IC30 (AGO2 MID domain [3]) | other results
1 | Nc1ccn([C@@H]2O[C@H](COP(=O)(O)O)[C@@H](O)[C@H]2O)c(=O)n1 [CMP] | AMP and UMP showed a stronger inhibition than CMP and GMP |  | 
2 | COc1ccc(-c2nn(CCC(=O)O)cc2C=C2SC(=S)NC2=O)cc1 [Z56862757] |  | Three of the hit compounds showed stronger inhibition than BCI-137 in the SPR analysis | 1H-15N HSQC NMR chemical shift perturbation (AGO2 MID domain [2]): NMR analysis suggests two Z56862757 binding sites, only one site could overlap with AMP
3 | COc1cc(C=C2SC(=S)N(C(CCC(=O)O)C(=O)O)C2=O)cc(Cl)c1O (stereo not drawn) [UZI/1999527] |  | Three of the hit compounds showed stronger inhibition than BCI-137 in the SPR analysis | 
4 | Nc1nc2c(ncn2[C@@H]2O[C@H](COP(=O)(O)O)[C@@H](O)[C@H]2O)c(=O)[nH]1 [GMP] | AMP and UMP showed a stronger inhibition than CMP and GMP |  | 
5 | Cc1cccc(C(Nc2ccc3c(c2)OC(F)(F)O3)P(=O)(O)O)c1 (stereo not drawn) [Z317095268] |  | Three of the hit compounds showed stronger inhibition than BCI-137 in the SPR analysis | 
6 | Nc1ncnc2c1ncn2[C@@H]1O[C@H](COP(=O)(O)O)[C@@H](O)[C@H]1O [AMP] |  |  | IC50 (AGO2 MID domain [1]; read-out: IC50): ~200 µM
7 | O=c1ccn([C@@H]2O[C@H](COP(=O)(O)O)[C@@H](O)[C@H]2O)c(=O)[nH]1 [UMP] | AMP and UMP showed a stronger inhibition than CMP and GMP |  | 
8 | Nc1ncnc2c1ncn2[C@@H]1O[C@H](CO)[C@@H](O)[C@H]1O [adenosine] |  |  | inhibition at 500 µM (AGO2 MID domain [4]): < 10%
